# Tested on: collagen type 1
# Assay: in vitro dermal fibroblast collagen assay (collagen 1 immunolabeling, flow cytometry)
# Type: cell-based, human
# Conditions: for Collagen 1 expression relative to untreated (%): normal human dermal fibroblasts, 72 hours, mean (n = 4), untreated = 100%
# Protocol: Amidinobenzyl Benzylsulfonyl D-Seryl Homophenylalaninamide Acetate (ABSHA) was evaluated for its effect on collagen type 1. This was done using an in vitro dermal fibroblast collagen assay.
# Normal human dermal fibroblasts were seeded in cell culture medium (Dulbecco's Modified Eagle Medium supplemented with 10% serum and 1% antibiotics) and allowed to adhere in a humidified cell incubator maintaining 37° C. and 5% CO2. Afterwards, the cells were starved with culture medium without serum for 16-24 hours to synchronize the cells their cell cycle. The starvation medium was removed and cell culture medium+SYN®-UP at various concentrations was added to the cells. The cells were treated for 72 hours. The cells were then fixated and immunolabeled with antibodies specific for collagen 1. These labeled cells were analyzed using flow cytometry and compared to the untreated ones (medium without SYN®-UP).
# Table 1. […] Data are normalized to the untreated control (100%) and expressed as the mean±SD (n=4).
smiles,measurement,setting,value
"N=C(N)c1ccc(CNC(=O)C(CCc2ccccc2)NC(=O)C(CO)NS(=O)(=O)Cc2ccccc2)cc1 [ABSHA, Amidinobenzyl Benzylsulfonyl D-Seryl Homophenylalaninamide Acetate]",effect on collagen type 1 expression (in words),in vitro dermal fibroblast collagen assay,increases collagen expression
same,Collagen 1 expression relative to untreated (%),1 μM,144%
same,Collagen 1 expression relative to untreated (%),5 μM,160%
same,Collagen 1 expression relative to untreated (%),25 μM,185%
same,Collagen 1 expression relative to untreated (%),"concentration printed only as ""μM"" (figure missing)",188%

# Reference: patent publication US20250161180A1, “NOVEL USE OF 4-AMIDINO BENZYLAMINES” (DSM IP Assets B.V., priority 2022, published 2025)
